In patent EP2246331A1, “NR2B-selective NMDA-receptor antagonists” (Westfälische Wilhelms-Universität Münster, priority 2009, dated 2010):
Like-named read-outs stand apart in the source and are kept apart here.

Key:
[1] = biological target: T1, polyamine binding site of the NR2B subunit of the NMDA receptor (Homo sapiens, UniProt Q05586+Q13224); assay: Filtration-based receptor binding assay with [3H]-Ifenprodil as radioligand; conditions: 5 nM [3H]-Ifenprodil, membrane homogenates of mouse L(tk-) cells transfected with NR1-1a/NR2B, 180 min at 37 °C, read-out: affinity to the NR2B binding site of the NMDA receptor
T1 construct: expressed in transfected cells; host or cells: mouse L(tk-) cells, dexamethasone-induced; gift from D. Steinhilber, University of Frankfurt
T1 sequence (Q13224 27-1484, other chains not shown): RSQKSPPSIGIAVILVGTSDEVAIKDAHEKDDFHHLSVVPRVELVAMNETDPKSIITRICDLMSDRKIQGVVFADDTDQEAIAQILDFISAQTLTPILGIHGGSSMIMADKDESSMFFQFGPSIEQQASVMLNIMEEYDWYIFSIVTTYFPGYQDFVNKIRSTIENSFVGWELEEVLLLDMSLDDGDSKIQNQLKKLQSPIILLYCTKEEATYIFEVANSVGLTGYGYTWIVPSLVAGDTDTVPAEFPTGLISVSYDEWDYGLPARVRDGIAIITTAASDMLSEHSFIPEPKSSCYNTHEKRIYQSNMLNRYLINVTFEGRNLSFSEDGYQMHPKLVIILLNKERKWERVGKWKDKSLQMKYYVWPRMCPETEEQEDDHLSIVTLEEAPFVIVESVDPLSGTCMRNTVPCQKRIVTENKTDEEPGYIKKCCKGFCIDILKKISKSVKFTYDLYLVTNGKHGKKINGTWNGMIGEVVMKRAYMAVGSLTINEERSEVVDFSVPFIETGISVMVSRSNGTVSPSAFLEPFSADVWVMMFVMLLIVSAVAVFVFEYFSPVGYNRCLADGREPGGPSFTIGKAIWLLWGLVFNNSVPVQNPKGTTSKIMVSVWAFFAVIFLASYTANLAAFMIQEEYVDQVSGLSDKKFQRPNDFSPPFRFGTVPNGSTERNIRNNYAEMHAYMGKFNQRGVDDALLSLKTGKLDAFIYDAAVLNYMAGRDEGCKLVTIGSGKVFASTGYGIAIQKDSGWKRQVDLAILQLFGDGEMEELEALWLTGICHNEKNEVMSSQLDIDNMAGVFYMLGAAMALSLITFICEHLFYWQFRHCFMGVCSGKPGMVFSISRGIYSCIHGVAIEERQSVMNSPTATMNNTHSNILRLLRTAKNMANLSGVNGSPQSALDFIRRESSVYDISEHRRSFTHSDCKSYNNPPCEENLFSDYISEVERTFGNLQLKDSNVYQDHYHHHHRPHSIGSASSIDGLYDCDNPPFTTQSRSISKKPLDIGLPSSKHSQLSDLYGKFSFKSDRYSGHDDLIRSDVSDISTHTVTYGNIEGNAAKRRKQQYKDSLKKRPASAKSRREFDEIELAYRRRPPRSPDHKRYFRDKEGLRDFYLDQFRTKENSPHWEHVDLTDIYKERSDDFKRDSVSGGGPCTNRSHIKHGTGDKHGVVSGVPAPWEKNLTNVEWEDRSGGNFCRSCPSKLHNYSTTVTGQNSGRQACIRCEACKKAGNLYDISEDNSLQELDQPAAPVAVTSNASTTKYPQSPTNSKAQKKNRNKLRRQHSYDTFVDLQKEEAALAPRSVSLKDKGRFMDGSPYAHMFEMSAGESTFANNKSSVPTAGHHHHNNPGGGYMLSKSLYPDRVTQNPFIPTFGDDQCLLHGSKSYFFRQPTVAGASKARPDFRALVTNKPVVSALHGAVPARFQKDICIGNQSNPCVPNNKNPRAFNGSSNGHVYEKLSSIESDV
Description: Mouse L(tk-) cells stably transfected with the dexamethasone-inducible eukaryotic expression vectors pMSG NR1-1a, pMSG NR2B in a 1:5 ratio were a generous gift from D. Steinhilber (Department of Pharmacy, University of Frankfurt, Germany). The transformed L(tk-) cells were grown in Modified Earl's Medium (MEM) containing 10% of standardized FCS (Biochrom AG, Berlin, Germany). The expression of the NMDA receptor at the cell surface was induced after the cell density of the adherent growing cells had reached approximately 90% of confluency. For the induction, the original growth medium was replaced by growth medium containing 4 µM dexamethasone and 4 µM ketamine (final concentration). After 24 h the cells were harvested by trypsination and pelleted (10 min, 5,000 x g, Hettich Rotina 35R centrifuge, Tuttlingen, Germany).
For the binding assay, the cell pellet was resuspended in PBS buffer and the number of cells was determined using an improved Neubauer's counting chamber (VWR, Darmstadt, Germany). Subsequently, the cells were lysed by sonication (4 °C, 6 x 10 s cycles with breaks of 10 sec). The resulting cell fragments were centrifuged with a high performance cool centrifuge (20,000 x g, 4 °C, Sorvall RC-5 plus, Thermo Scientific). The supernatant was discarded and the pellet resuspended in a defined volume of phosphate buffer saline (PBS) yielding cell fragments of approximately 500,000 cells/mL. The suspension of membrane homogenates was sonicated again (4 °C, 2 x 10 s cycles with a break of 10 min) and stored at -80 °C.
The cell membrane suspension was added last. All experiments were carried out in triplicates. The incubation was terminated by rapid filtration through filtermats using a cell harvester (MicroBeta FilterMate-96 Harvester, Perkin Elmer). Prior to harvesting, the filtermats were presoaked in 0.5% aqueous polyethylenimine for 2 h at room temperature. After washing each well five times with 300 µL of water, the filtermats were dried at 95 °C. Subsequently, the solid scintillator was placed on the filtermat and melted at 95 °C. After 5 min, the solid scintillator was allowed to solidify at room temperature. The bound radioactivity trapped on the filters was counted in the scintillation analyzer (Microbeta Counter, Perkin Elmer). The overall counting efficiency was 20%.
The protein concentration was determined by the method of Bradford, modified by Stoscheck. The Bradford solution was prepared by dissolving 5 mg of Coomassie Brilliant Blue G 250 in 2.5 mL EtOH (95%, v/v). 10 mL deionized H2O and 5 mL phosphoric acid (85%, m/v) were added to this solution, the mixture was stirred and filled up to a total volume of 50.0 mL with deionized water. The calibration was carried out using bovine serum protein as a standard in concentrations between 0.1 and 10 mg /L. In a 96-well standard multiplate, 10 µL of the calibration solution or 10 µL of the membrane receptor preparation were mixed with 190 µL of the Bradford solution, respectively.
Kd and Bmax were calculated as described in the "Data analysis" section.
Data analysis was performed with Graph Pad Prism® Software, Version 3.0 (Graph Pad Software Inc., San Diego, CA, USA).
Saturation analyses were made by nonlinear regression using the "one-site-saturation" calculation method. The IC50 values of the test compounds used in the competitive binding experiments were determined by nonlinear regression using the "one-site-competition" calculation method. […] The Ki values are given as mean values from three independent experiments ± Standard Error of the Mean (S.E.M).

σ1 receptor = biological target: T2, σ1 receptor (Cavia porcellus, UniProt Q60492); assay: Receptor binding assay with [3H]-(+)-pentazocine on guinea pig brain membranes; conditions: for inhibition of the σ1 receptor only at concentrations above: given as above 1 µM or 10 µM
T2 construct: tissue Harlan Winkelmann; host or cells: guinea pig brain membranes
T2 sequence (Q60492 whole entry): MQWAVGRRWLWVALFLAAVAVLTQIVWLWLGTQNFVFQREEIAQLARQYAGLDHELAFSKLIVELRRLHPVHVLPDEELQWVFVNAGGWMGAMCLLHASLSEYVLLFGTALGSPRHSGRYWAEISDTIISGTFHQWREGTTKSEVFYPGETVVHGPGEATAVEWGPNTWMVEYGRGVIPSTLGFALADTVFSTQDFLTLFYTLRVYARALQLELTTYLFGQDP
Description: (§1) The pig brains were a donation of the local slaughterhouse (Coesfeld, Germany). Homogenizer: Elvehjem Potter (B. Braun Biotech International, Melsungen, Germany). Centrifuge: High-speed cooling centrifuge model Sorvall RC-5C plus (Thermo Fisher Scientific, Langenselbold, Germany). Filter: Printed Filtermat Typ A and B (Perkin Elmer LAS, Rodgau-Jügesheim, Germany), presoaked in 0.5% aqueous polyethylenimine for 2 h at room temperature before use. […] Before filling to the final volume of 1000 mL, the pH of the solution was adjusted to pH=7.5 by dropwise addition of 1M HCl. The filtration was carried out with a MicroBeta FilterMate-96 Harvester (Perkin Elmer). The scintillation analysis was performed using Meltilex (Typ A or B) solid scintillator (Perkin Elmer). The solid scintillator was melted on the filtermat at a temperature of 95 °C for 5 minutes. After solidifying of the scintillator at room temperature, the scintillation was measured using a MicroBeta Trilux scintillation analyzer (Perkin Elmer). The overall counting efficiency was 20 %. All experiments were carried out in triplicates using standard 96-well-multiplates (Diagonal, Muenster, Germany). […] The Ki-values are given as mean value ± SEM from three independent experiments.
Determination of the affinity to the σ1 receptor
Five guinea pig brains (Harlan Winkelmann, Borchen, Germany) were homogenized with the potter (500-800 rpm, 10 up-and-down strokes) in 6 volumes of cold 0.32 M sucrose. The suspension was centrifuged at 1200 x g for 10 min at 4 °C. […] This procedure was repeated twice. The final pellet was resuspended in 5 to 6 volumes of buffer, the protein concentration was determined according to the method of Bradford using bovine serum albumin as standard, and subsequently the preparation was frozen (-80 °C) in 1.5 mL portions containing about 1.5 mg protein/mL.
The test was performed with the radioligand [^3H]-(+)-pentazocine (42,5 Ci/mmol; Perkin Elmer). […] The incubation was terminated by rapid filtration through the presoaked filtermats using a cell harvester. After washing each well five times with 300 µl of water, the filtermats were dried at 95 °C. The bound radioactivity trapped on the filters was counted in the scintillation analyzer as described in the "General procedures" section. The non-specific binding was determined with 10 µM unlabeled (+)-pentazocine.

σ2 receptor = biological target: T3, σ2 receptor (Rattus norvegicus, UniProt Q5U3Y7); assay: Receptor binding assay with [3H]-ditolylguanidine on rat liver membranes; conditions: for Ki: read-out: affinity to the σ2 receptor
T3 construct: tissue Harlan Winkelmann; host or cells: rat liver membranes
T3 sequence (Q5U3Y7 1-176): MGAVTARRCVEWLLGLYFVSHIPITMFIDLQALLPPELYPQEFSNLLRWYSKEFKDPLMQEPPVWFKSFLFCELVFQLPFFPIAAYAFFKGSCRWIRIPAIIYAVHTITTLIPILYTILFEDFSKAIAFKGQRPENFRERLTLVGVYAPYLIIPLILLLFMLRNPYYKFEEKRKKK
Description: as §1
Determination of affinity to the σ2 receptor
Two rat livers (Harlan Winkelmann, Borchen, Germany) were cut into smaller pieces and homogenized with the potter (500-800 rpm, 10 up-and-down strokes) in 6 volumes of cold 0.32 M sucrose. The suspension was centrifuged at 1200 x g for 10 min at 4 °C. The supernatant was separated and centrifuged at 31000 x g for 20 min at 4 °C. The pellet was resuspended in 5-6 volumes of buffer (50 mM TRIS, pH 8.0) and incubated at room temperature for 30 minutes. After the incubation, the suspension was centrifuged again at 31000 x g for 20 min at 4 °C. The final pellet was resuspended in 5 to 6 volumes of buffer, the protein concentration was determined according to the method of Bradford using bovine serum albumin as standard, and subsequently the preparation was frozen (-80 °C) in 1.5 mL portions containing about 2 mg protein/mL.
(50 Ci/mmol; ARC). […] The incubation was terminated by rapid filtration through the presoaked filtermats using a cell harvester. After washing each well five times with 300 µL of water, the filtermats were dried at 95 °C. Subsequently, the solid scintillator was placed on the filtermat and melted at 95 °C. The bound radioactivity trapped on the filters was counted in the scintillation analyzer as described in the "General procedures" section.

[2] = Ki mean of three experiments ± S.E.M.
[3] = 2 nM [3H]-(+)-pentazocine, guinea pig brain membranes
[4] = 3 nM [3H]-ditolylguanidine with 2 µM (+)-pentazocine
[5] = 3 nM [3H]-ditolylguanidine with 2 µM (+)-pentazocine, 180 min at room temperature, mean ± SEM
[6] = 2 nM [3H]-(+)-pentazocine, guinea pig brain membranes, 180 min at 37 °C, mean ± SEM, read-out: affinity to the σ1 receptor
[7] = 3 nM [3H]-ditolylguanidine with 2 µM (+)-pentazocine, values given in µM

| SMILES | Ki [1, 2] [µM] | Ki (σ2 receptor; [5]) [µM] | Ki (σ1 receptor; [6]) [µM] | also measured |
| --- | --- | --- | --- | --- |
| OC1CN([C@H]2CC[C@@H](c3ccccc3)CC2)CCc2cc(OCc3ccccc3)ccc21 (relative stereo) [formula (19)] | 0.156 |  |  | inhibition of the σ1 receptor only at concentrations above (σ1 receptor; [3]): above 1 µM; inhibition of the σ2 receptor only at concentrations above (σ2 receptor; [4]): above 1 µM |
| Oc1ccc2c(c1)CCN([C@H]1CC[C@@H](c3ccccc3)CC1)CC2O (relative stereo) [formula (21)] | 0.00486 | 0.00856 ± 0.00433 |  |  |
| Oc1ccc2c(c1)CCN([C@H]1CC[C@H](c3ccccc3)CC1)CC2O (relative stereo) [formula (23)] | 0.0342 | 0.00893 ± 0.00257 | 0.2 ± 0.062 |  |
| COc1ccc2c(c1)CCN(CCCCc1ccccc1)CC2O (stereo not shown) [formula (1)] | 0.00512 | 0.554 ± 0.221 | 0.182 ± 0.067 |  |
| CCCCCCCCN1CCc2cc(OC)ccc2C(O)C1 (stereo not shown) [formula (2)] | 0.591 ± 0.15 | 0.108 ± 0.09 |  | Ki (σ1 receptor): 0.0446 ± 0.0214 µM |
| COc1ccc2c(c1)CCN(C1CCC(c3ccccc3)CC1)CC2O (stereo not shown) [formula (3)] | 0.192 ± 0.026 | 0.0816 ± 0.0444 | 0.0331 ± 0.0298 |  |
| Oc1ccc2c(c1)CCN(CCCCc1ccccc1)CC2O (stereo not shown) [formula (4)] | 0.0153 ± 0.0012 |  |  |  |
| COc1ccc2c(c1)CCN(CCCCCc1ccccc1)CC2O (stereo not shown) [formula (5)] | 0.325 | 0.305 | 0.0653 ± 0.0123 |  |
| COc1ccc2c(c1)CCN(CCCC(=O)c1ccc(F)cc1)CC2O (stereo not shown) [formula (6)] | 0.258 |  |  | inhibition of the σ1 receptor only at concentrations above (σ1 receptor; [3]): above 1 µM; inhibition of the σ2 receptor only at concentrations above (σ2 receptor; [4]): above 1 µM |
| COc1ccc2c(c1)CCN(CCCCSc1ccccc1)CC2O (stereo not shown) [formula (7)] |  | 0.308 ± 0.116 | 0.0947 ± 0.051 | Ki ([1]; values given in µM): 1.04 µM |
| COc1ccc2c(c1)CCN(CCCSc1ccccc1)CC2O (stereo not shown) [formula (8)] |  |  | 0.155 | Ki ([1]; values given in µM): 1.88 µM; Ki (σ2 receptor; [7]): 1.52 µM |
| OC1CN(CCCCc2ccccc2)CCc2cc(OCc3ccccc3)ccc21 (stereo not shown) [formula (9)] | 0.249 ± 0.063 |  | 0.293 ± 0.101 | Ki (σ2 receptor; [7]): 1.05 µM |
| O=S(=O)(CCCN1CCc2cc(OCc3ccccc3)ccc2C(O)C1)c1ccccc1 (stereo not shown) [formula (10)] | 0.0452 |  | 0.349 | Ki (σ2 receptor; [7]): 3.04 µM |
| COc1ccc2c(c1)CCN(CCCC1(c3ccc(F)cc3)OCC(C)(C)CO1)CC2O (stereo not shown) [formula (11)] | 0.107 |  | 0.0456 | Ki (σ2 receptor; 3 nM [3H]-[…] with 2 µM (+)-pentazocine, 180 min at room temperature, mean ± SEM): 0.103 µM |
| OC1CN(CCCSc2ccccc2)CCc2cc(OCc3ccccc3)ccc21 (stereo not shown) [formula (12)] | 0.046 | 0.653 | 0.376 |  |
| CC(C)(C)c1ccc(C(=O)CCCN2CCc3cc(OCc4ccccc4)ccc3C(O)C2)cc1 (stereo not shown) [formula (13)] | 0.099 |  | 0.604 | Ki (σ2 receptor; [7]): 6.43 µM |
| COc1ccc2c(c1)CCN(CCCC(=O)c1ccc(C(C)(C)C)cc1)CC2O (stereo not shown) [formula (14)] | 0.0604 | 0.267 ± 0.055 | 0.0443 ± 0.0141 |  |
| CC1(C)COC(CCCN2CCc3cc(OCc4ccccc4)ccc3C(O)C2)(c2ccc(F)cc2)OC1 (stereo not shown) [formula (15)] |  |  |  | Ki ([1]; values given in µM): 1.24 µM; inhibition of the σ1 receptor only at concentrations above (σ1 receptor; [3]): above 1 µM; inhibition of the σ2 receptor only at concentrations above (σ2 receptor; [4]): above 1 µM |
| CN(Cc1ccccc1)C(=O)CN1CCc2cc(O)ccc2C(O)C1 (stereo not shown) [formula (16)] |  |  | 0.172 | Ki ([1]; values given in µM): 7.68 µM; Ki (σ2 receptor; [7]): 1.58 µM |
| C[C@H]1[C@H](O)c2ccc(O)cc2CCN1CCCCc1ccccc1 [formula (29)] | 0.171 |  | 0.0408 |  |
| C[C@@H]1[C@@H](O)c2ccc(O)cc2CCN1CCCCc1ccccc1 [formula (30)] | 0.0164 |  | 0.846 |  |
